This is an account of results in US20070225518A1, “5-Aminolevulinic acid salts and their use” (priority 2006, published 2007).

SMILES strings stand for the structures. Entries after “also recorded” stand apart in the source; their conditions may differ.

For data set [1], the system named is Friend erythroleukemia cells (FLC). The data set is described as follows: PpIX formation in FLC by HPLC analysis of extracted porphyrins. The settings on record: 0.1 mg/ml, 4 h, retention time typical of PpIX. It counts as cell-based. As for the experimental part: (§1) Cell culture. Friend erythroleukemia cells (FLC) and B16 melanoma cells were grown in a DMEM medium and RPMI 1640, respectively, (Biological Industries, Beit-Haemek, Israel), supplemented with 10% fetal calf serum and antibiotics, on tissue culture plates (Corning, Cambridge, Mass., USA) and incubated at 37° C. in a humidified atmosphere with 8% CO2. The cells were re-cultured twice a week.
(§2) Extraction of porphyrins from cells. FLC were incubated with 0.1 mg/ml ALA-HCl, AN 301, or AN 302 for 4 h. The cells were then washed and suspended in 750 μl glacial acetic acid. The cells were then sonicated on ice, at an amplitude of 1-2, three times for 45 sec, with 15 sec between successive sonications. Following the sonication, the lysate was transferred to glass test tubes containing 2.25 ml ethyl acetate, vigorously vortexed and centrifuged for 15 min at 3000 rpm. 2.6 ml of the supernatant were then transferred to glass test tubes containing 500 μl/1000 μl 1 M HCl and incubated overnight at 4° C. in the dark. Two phases formed, a lower inorganic phase and an upper organic phase containing the porphyrins. 300-700 μl from the organic phase was carefully removed with a Pasteur pipet. The porphyrins were then examined by HPLC and by spectroscopy.
High pressure liquid chromatograph [HPLC] analysis of porphyrins. Extracted porphyrins were purified by HPLC on an Apex Presil C18 8μ column (Jones, Chromatography, Lakewood, Colo.) using a 0-50% linear gradient aetonitrile (+0.1% trifluoroacetic acid) over 40-min elution at 47% acetonitrile.

Data set [2] shares this test system. Nature of the data set: PpIX formation in FLC by fluorescence spectroscopy of extracted porphyrins. Type of data set: cell-based. To be noted: 0.1 mg/ml, 4 h, excitation 410 nm, characteristic major peak at 633. As for the experimental part:
as §1, §2
Fluorometry of porphyrins. Fluorescence spectroscopy of the extrated porphyrins was examined using a SLM-Aminco spectrometer. Emission spectra were recorded following excitation at 410 nm.

For data set [3] the test system is unchanged. The data set is described as follows: Flow cytometry for cellular PpIX after uptake of ALA salt. Type of data set: cell-based. To be noted: stock solutions in H2O, PEG, buffer pH7. As for the experimental part: as §1
(§3) Flow cytometry for cellular PpIX. […] After the incubation, the cells were washed with Ca^+2—Mg+^2 free PBS and scraped off with a rubber policeman. After a 10 min centrifugation at 1100 RPM, the supernatant was decanted and the pellet was resuspended in 0.5 ml Ca^+2—Mg^+2 free PBS. The cell suspension was filtered and measured using a Fluorescence Activated Cell Sorter (Becton Dickinson FACS Calibur, Mountain View, Calif., USA). 10,000 cells were measured in each sample using an excitation wavelength of 488 nm, and emission >600 nm, respectively.
. Stock solutions of the ALA salt were made up in (a) H2O, (b) PEG, and (c) buffer pH7. […]. The ALA salt was then presented to the cells, and biosynthesis of PpIX was determined by flow cytometry. In controls (d) no ALA salt was presented to the cells. Typical results are shown in FIG. 3 in which the horizontal axis is florescence intensity (in arbitrary units), and the vertical axis is the number of cells having a given intensity level. […]
For orientation: In flow cytometry, cells or beads pass a laser one at a time.

Data set [4] has the same test system. The data set is described as follows: Stability of stored ALA salt solutions, read out as porphyrin formation in FLC by flow cytometry. Type of data set: cell-based. The settings on record: for Stability of solutions on storage (porphyrin formation in cells): 0.1 mg/ml, 7 days at 4° C. and at 37° C.; for Stability in aqueous and non-aqueous media: aqueous as well as non-aqueous media such as PEG. As for the experimental part: as §3
. […] (a), 37° C. (b), or after no storage (c). In controls (d), no ALA salt was presented to the cells. The cells were then examined for the presence of PpIX by flow cytometry at […]. […]

Data set [5] concerns B16 melanoma cells. The data set is described as follows: ALA treatment, photosensitization and MTT assay. It counts as cell-based. The settings on record: 0.6 mM, 4 hr, irradiation 360-410 nm, MTT after 24 hr. As for the experimental part:
as §1
ALA treatment and photosensitization. […] At the end of the incubation period, the cells were irradiated using a Vilber Lourmat lamp, VL-206BL, delivering a power density of 22.5 mW at 360-410 nm. Light intensity was measured with a Nova photometer (Ophir Optronics, Jerusalem).
MTT assay. The effect of PDT on cell viability was measured after 24 hr. by a modified MTT assay which is based on the ability of live cells to cleave the tetrazolium ring to a molecule that absorbs at 590 nm in active mitochondria (Mosmann, 1983). 2×10^3 cells were grown in 96-well plates. The growth medium was replaced and 20 μl MTT (3-(4,5-dimethylthiazol-2-yl)-2,5-diphenyl tetrazolium bromide), 5 mg/ml PBS (Sigma, Chemical Co, St. Louis, Mo., USA), were added to each well. The cells were further incubated at 37° C. for 2 h. For lysis of the cells, N,N-dimethyformamide was added to the media for 5 hours and absorbance was then measured at 590 nm.
(In general: Formazan colour is commonly taken as a measure of viable cells.)

For data set [6] the following is noted: background statement, cited from earlier work.
[7] abbreviates: stock solution stored 7 days, 4° C.
[8] abbreviates: stock solution stored 7 days, 37° C.

As for `NCC(=O)CCC(=O)O` [AN-302, 5-Amino-4-oxopentanoic acid 2-naphtylsulfonate], in data set [1], the “PpIX formation in the cells as determined by HPLC” value (shortened to “PpIX formation … by HPLC”) is given as “same porphyrin (PpIX) was generated”. In addition, in data set [2], the “PpIX formation in the cells by spectroscopy” value is “same porphyrin product was generated”. Also, the “formation of PpIX inside the cells by flow cytometry” value in data set [3] is reported as “leads to the formation of PpIX inside the cells”. Further, the “Stability of solutions on storage (porphyrin formation in cells)” value (“Stability of solutions on storage” below) in data set [4] is given as “stable; also recorded: retained significant activity”. Also, the “porphyrin formation in FLC by flow cytometry” value (shortened to “porphyrin formation in FLC”) in data set [4] (setting [7]) came to 23 arbitrary units; in data set [4] (setting [8]) it was 29 arbitrary units; in data set [4] (stock solution, storage time 0) it was 49 arbitrary units. The “Cell death / viability (MTT activity) following illumination” value in data set [5] was “as effective as ALA-HCl in causing cell death”.

As for `NCC(=O)CCC(=O)O.O=S(=O)(O)c1ccc2ccccc2c1` [AN-302, 5-Amino-4-oxopentanoic acid 2-naphtylsulfonate], the “Stability in aqueous and non-aqueous media” value in data set [4] is listed as “stable”.

With `Cl.NCC(=O)CCC(=O)O` [ALA-HCl, reference compound], the “PpIX formation … by HPLC” value in data set [1] is on record as “same porphyrin (PpIX) was generated”. In addition, in data set [2], the “PpIX formation in the cells by spectroscopy” value was “same porphyrin product was generated”. Besides, the “Stability of solutions on storage” value in data set [4] is “completely degraded”. Also, the “porphyrin formation in FLC” value is reported as 3.5 arbitrary units in data set [4] (setting [7]); 3.5 arbitrary units in data set [4] (setting [8]); 60 arbitrary units in data set [4] (stock solution, storage time 0). For the same compound, in data set [6] (aqueous media), the “Solubility in aqueous media” value is recorded as “soluble”. The “Solubility in organic solvents including polyethylene glycol (PEG)” value in data set [6] (organic solvents including PEG) is on record as “insoluble”.

On to `NCC(=O)CCC(=O)O.O=S(=O)(O)c1ccccc1` [AN-301, 5-Amino4-oxopentanoic acid benzenesulfonate], for which the “PpIX formation … by HPLC” value in data set [1] is “same porphyrin (PpIX) was generated”. Besides, the “PpIX formation in the cells by spectroscopy” value in data set [2] is recorded as “same porphyrin product was generated”. Moreover, the “formation of PpIX inside the cells by flow cytometry” value in data set [3] was “leads to the formation of PpIX inside the cells”. Moreover, the “Stability of solutions on storage” value in data set [4] (benzenesulfonate) is reported as “stable; also recorded: retained significant activity”. Also, the “Stability in aqueous and non-aqueous media” value in data set [4] was “stable”. In addition, the “porphyrin formation in FLC” value in data set [4] (setting [7]) was determined as 39 arbitrary units; in data set [4] (setting [8]), 39 arbitrary units; in data set [4] (stock solution, storage time 0) it was 57 arbitrary units. Further, in data set [5], the “Cell death / viability (MTT activity) following illumination” value is given as “as effective as ALA-HCl in causing cell death”. Also, where the note is “H2O, PEG, and buffer pH7”, the “Solubility in stock solution solvents” value is on record as “soluble in each of these three solvents”. Under “PEG”, the “Lipid solubility PEG” value is “soluble in PEG”. For the setting “aqueous as well as non-aqueous media such as PEG”, the “Solubility in aqueous and non-aqueous media” value is “soluble”.
